Reference: patent US8541476B2, “Compounds for treatment of malignant tumors” (The Trustees of the University of Pennsylvania, priority 2007, dated 2013)

What was measured:
[1] = system: dsDNA break repair in U251 cells; assay: DSB measurement by PFGE and number average length analysis; format: cell-based, human; details: U251, 30 μM 4 hours, 4 Gy
Procedure: Cells were treated with 30 μM NS-123 or DMSO alone. Four hours later, the cells were either sham-irradiated, or irradiated with 4 Gy of ^137Cs γ-rays (Radiation Facility, Brody School of Medicine, ECU) at the dose rate of 0.57 Gy/min and placed immediately at 37° C. in fresh medium without NS-123 and harvested at different repair times up to 24 hours. No significant changes in the percentage of dead cells were detected by trypan blue exclusion as a result of irradiation. […] A DNA dispersion curve relating DNA length to electrophoretic mobility, based on all length standards was determined from an analytical mobility function as previously described using number average length analysis (NALA) (Seo, et al., 2005, Clin. Cancer Res. 11:7499-507).
As a first step in understanding the mechanism of the radiosensitizing activity of NS-123, the processing of DSBs in U251 cells treated with 30 μM NS-123 or DMSO (control) was measured using an adaptation of PFGE. […] Therefore, a 4 hour, 30 μM NS-123 treatment for experiments analyzing the effects of NS-123 on DSB repair and immunoblotting was used (see below) which require a significant quantity of cells. […]

[2] = system: U251 tumors xenografts; assay: U251 xenograft mouse model, tumor growth delay; format: in vivo
Procedure: U251 cells (5×10^6) were suspended in 0.1 mL of PBS and then injected into the flanks of nu/nu female nude mice. After tumors formed (45±10 mm^3), mice were randomly assigned into one of four groups: DMSO+Sham IR, DMSO+5 Gy IR, NS-123+Sham IR, and NS-123+5 Gy IR. NS-123 was administered as described above. Groups not receiving NS-123 were treated with the same volume of DMSO alone dissolved in 30% propylene glycol. Mouse flanks were irradiated 4 hours following the second injection with 5 Gy (Precision X-Ray, Inc, North Branford, Conn.) given as one fraction or Sham IR. Tumor volumes were measured every other day based on the formula: Volume=length^2×width where length was always the longest dimension.
Data are presented as average relative tumor volume (RTV), where: RTV[Dayx]=Volume[Dayx]/Volume[Day0]
The measurement of tumor regrowth was calculated by the time needed to grow to 10× the treatment volume. As per Seo et al, 2005, (Clin. Cancer Res. 11:7499-507), the in vivo radiosensitizer enhancement ratio was defined as the ratio: TNS-123+IR/TDMSO+IR where T is tumor regrowth delay (days)
To investigate in a more sophisticated model the radiosensitization observed by NS-123 in ZF, a growth delay assay of U251 tumors xenografts in nu/nu nude mice was performed. Mice were treated for 3 consecutive days with either NS-123 or DMSO (i.p.) and received either 5 Gy IR or Sham IR 4 hours after the second injection (see Table at the bottom FIG. 7A). […] Furthermore, they provide additional support for the use of the novel ZF xenograft model as a faster, more economical screening tool for potential in vivo radiosensitizing activity of lead compounds.

Compound: CCC(=O)c1ccc(Br)c([N+](=O)[O-])c1 [NS-123, 4′-bromo-3′-nitropropiophenone]
- initial number of dsDNA breaks [1]: 88.5±5.3 DSBs/Gbp
- residual DSB damage compared to initial levels ([1]; 24 hours repair): ~25%
- mean time to reach Relative Tumor Volume (RTV)=10 ([2]; NS-123 50 mg/kg i.p. x3 days + 5 Gy IR): 20 days
- mean time to reach Relative Tumor Volume (RTV)=10 ([2]; NS-123 50 mg/kg i.p. x3 days + Sham IR): 12 days
- in vivo radiosensitizer enhancement ratio ([2]; ratio of tumor regrowth delay NS-123+IR / DMSO+IR): 2.0
